Here are results for one molecule from ChEMBL document CHEMBL5727303, “Substituted perhydropyrrolo[3,4-c]pyrrole derivatives and the use of same” (2019).

The target in experiment [1] is Potassium channel subfamily K member 3 (Homo sapiens, UniProt O14649). The experiment can be described thus: (§1) In Vitro Electrophysiological Assay: In Vitro Electrophysiological Analysis of the Human TASK-1 and TASK-3 Channels Via Two-Electrode Voltage Clamp Technique in Xenopus laevis OocytesSubsequently, the oocytes were injected with 0.5-5 ng of a cRNA solution coding for TASK-1 or TASK-3. For the electrophysiological analysis of the channel proteins expressed in the oocytes, the two-electrode voltage clamp technique was used. The measurements were conducted at room temperature (21-22° C.) using a Turbo TEC 10CD amplifier (NPI), recorded at 2 kHz and filtered with 0.4 kHz. Substance administration was performed using a gravitation-driven perfusion system. Here, the oocyte is located in a measuring chamber and exposed to the solution stream of 10 ml/min. The level in the measuring chamber is monitored and regulated by sucking off the solution using a peristaltic pump. Type of experiment: cell-based. Background: Two-electrode voltage clamp holds a large cell at a set potential and records current.
Sequence of Potassium channel subfamily K member 3 (O14649 whole entry, the tested form may be a part): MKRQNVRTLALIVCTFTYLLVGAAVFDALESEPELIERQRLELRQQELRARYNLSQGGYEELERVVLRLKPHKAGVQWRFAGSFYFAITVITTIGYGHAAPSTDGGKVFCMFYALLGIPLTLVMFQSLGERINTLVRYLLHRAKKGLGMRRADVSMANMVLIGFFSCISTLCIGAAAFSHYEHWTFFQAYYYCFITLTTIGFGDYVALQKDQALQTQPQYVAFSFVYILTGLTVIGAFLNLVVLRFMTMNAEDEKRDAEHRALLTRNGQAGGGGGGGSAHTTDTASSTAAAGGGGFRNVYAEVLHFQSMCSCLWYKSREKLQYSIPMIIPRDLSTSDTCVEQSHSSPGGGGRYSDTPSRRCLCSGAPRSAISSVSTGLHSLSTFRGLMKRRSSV

For experiment [2], the target named is Potassium channel subfamily K member 9 (Homo sapiens, UniProt Q9NPC2). Described as §1. Type of experiment: cell-based.
Sequence of Potassium channel subfamily K member 9 (Q9NPC2 whole entry): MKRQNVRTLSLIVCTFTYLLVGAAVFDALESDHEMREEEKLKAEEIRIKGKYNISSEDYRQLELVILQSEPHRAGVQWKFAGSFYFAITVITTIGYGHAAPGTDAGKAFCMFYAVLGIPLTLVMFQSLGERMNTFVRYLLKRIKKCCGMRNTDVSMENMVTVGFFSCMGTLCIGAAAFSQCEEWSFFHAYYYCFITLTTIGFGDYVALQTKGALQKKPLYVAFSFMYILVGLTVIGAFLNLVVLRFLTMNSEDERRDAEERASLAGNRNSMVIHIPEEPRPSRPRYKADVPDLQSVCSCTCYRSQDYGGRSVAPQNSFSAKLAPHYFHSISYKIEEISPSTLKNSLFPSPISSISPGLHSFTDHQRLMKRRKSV

In general, IC50 refers to the concentration that gives 50% inhibition.

Regarding `CCOc1ccccc1NC(=O)N1CC2CN(Cc3c(-c4ccc(Br)cc4)nc4ccccn34)CC2C1` (configuration not stated), the IC50 in experiment [1] turned out to be 740 nM; in experiment [2], 3700 nM.
